Experimental data published in patent publication US20160296511A1, “LAQUINIMOD FOR REDUCING THALAMIC DAMAGE IN MULTIPLE SCLEROSIS” (Teva Pharmaceutical Industries, Ltd., priority 2012, published 2016).

What was measured:
[1] = system: subjects with RRMS; assay: ALLEGRO sub-study: evolution of GdE and new T2 lesions into permanent black holes (PBH), frequent MRI group; type: in vivo, human; details: for Number of PBH from GdE lesions, adjusted mean (SE) / PBH from GdE lesions, RR (risk ratio) laquinimod vs placebo / Number of PBH from active lesions, adjusted mean (SE) / Number of PBH from new T2 lesions, mean (SE) / PBH from active lesions, RR (risk ratio) laquinimod vs placebo / PBH from new T2 lesions, RR (risk ratio) laquinimod vs placebo: 0.6 mg
Text: A subset of patients in ALLEGRO comprised a “frequent MRI” group for PBH analysis; these patients had MRIs taken at months 3, 6, 12 and 24. Patients in the frequent MRI group with active lesions at baseline or during the study were included in the PBH analysis. A negative binomial regression analysis was used to estimate the mean number of PBH at months 12 and 24 that evolved from GdE and new T2 lesions detected at various time points in the study in the “frequent MRI” subgroup.

[2] = system: subjects with RRMS; assay: ALLEGRO sub-study: MT MRI, magnetization transfer ratio (MTR) of NABT, WM, GM and T2 lesions; type: in vivo, human; details: for Average MTR of T2 lesions, LS mean (SE) change / GM MTR, LS mean (SE) change / NABT MTR, LS mean (SE) change / WM MTR, LS mean (SE) change: 0.6 mg; for Average MTR of T2 lesions, treatment difference (95% CI) / GM MTR, treatment difference (95% CI) / NABT MTR, treatment difference (95% CI) / WM MTR, treatment difference (95% CI): laquinimod 0.6 mg vs placebo
Protocol: • 1. Frequent MRI (selected countries and sites only): The cumulative number of T1-Gd enhancing lesions taken from scans obtained at months 0, 3, 6, 12, and 24, and in case the study is be extended, 30. Additional MRIs for the ancillary study are performed at months 3 and 6. • 2. Magnetization Transfer (MT) (selected countries and sites only): the change from baseline to month 12 and 24/30 months in magnetization transfer MRI. MT was assessed at months 0 (baseline), 12 and 24 (termination/early discontinuation). In case of the 6 months extended study, the last MT was performed at month 30 (termination/early discontinuation of the extended study) instead of month 24. • 3. Proton MR Spectroscopy (^1H-MRS) (selected countries and sites only): Change from baseline to 24/30 in ^1H-MRS metabolites. ^1H-MRS was assessed at months 0 (baseline), and 24 (termination/early discontinuation). In case of the 6 months extended study, the last ^1H-MRS was performed at month 30 (termination/early discontinuation of the extended study) instead of month 24. • 4. Pharmacogenetic (PGx) assessment: Blood samples for PGx parameters were collected from all subjects at screening. • 5. Brain atrophy, as defined by the percentage of change from one scan to the subsequent scan in brain volume, in addition to the measurements done in the main study (Frequent MRI Cohort). • 6. Whole blood and serum samples (selected countries and sites only) were collected for evaluation of the immunological response to treatment with laquinimod and further investigation of the potential mechanism of action. Whole blood samples were collected at months: 0, 1, 3, 6, 12 and 24. Serum samples were collected at month: 0, 1, 6, 12 and 24 (even if the study is extended to month 30). • 7. Relationship between PGx and response to laquinimod in terms of clinical, MRI and safety parameters. Patients with valid baseline and month 12, and/or month 24 MT MRI assessments were included in the analysis. Least square (LS) mean changes from baseline MTR in NABT, WM, GM and T2-lesions at months 12 and 24, and between months 12 an 24, were evaluated using a MMRM analysis.

[3] = system: RRMS patients; details: cited from earlier work
[4] = PBH at Month 12 from lesions at Baseline
[5] = PBH at Month 12 from lesions at Month 3
[6] = PBH at Month 12 from lesions at Months 3 and 6
[7] = PBH at Month 24 from All lesions
[8] = PBH at Month 24 from lesions at Baseline
[9] = PBH at Month 24 from lesions at Month 3
[10] = PBH at Month 24 from lesions at Months 3, 6, and 12

CCN(C(=O)c1c(O)c2c(Cl)cccc2n(C)c1=O)c1ccccc1 [Laquinimod]
Number of PBH from GdE lesions, adjusted mean (SE) [1, 4]: 0.5 (0.16) [26]
PBH from GdE lesions, RR (risk ratio) laquinimod vs placebo [1, 4]: 0.53
Number of PBH from GdE lesions, adjusted mean (SE) [1, 5]: 0.6 (0.25) [14]
Number of PBH from active lesions, adjusted mean (SE) [1, 5]: 0.41 (0.14) [29]
Number of PBH from new T2 lesions, mean (SE) [1, 5]: 0.40 (0.15) [28]
PBH from GdE lesions, RR (risk ratio) laquinimod vs placebo [1, 5]: 0.58
PBH from active lesions, RR (risk ratio) laquinimod vs placebo [1, 5]: 0.44
PBH from new T2 lesions, RR (risk ratio) laquinimod vs placebo [1, 5]: 0.52
Number of PBH from GdE lesions, adjusted mean (SE) [1, 6]: 0.6 (0.18) [25]
Number of PBH from active lesions, adjusted mean (SE) [1, 6]: 0.59 (0.15) [41]
Number of PBH from new T2 lesions, mean (SE) [1, 6]: 0.57 (0.16) [40]
PBH from GdE lesions, RR (risk ratio) laquinimod vs placebo [1, 6]: 0.45
PBH from active lesions, RR (risk ratio) laquinimod vs placebo [1, 6]: 0.42
PBH from new T2 lesions, RR (risk ratio) laquinimod vs placebo [1, 6]: 0.48
Number of PBH from GdE lesions, adjusted mean (SE) [1, 7]: 1.0 (0.20) [41]
Number of PBH from active lesions, adjusted mean (SE) [1, 7]: 1.20 (0.19) [55]
Number of PBH from new T2 lesions, mean (SE) [1, 7]: 0.87 (0.17) [51]
PBH from GdE lesions, RR (risk ratio) laquinimod vs placebo [1, 7]: 0.45
PBH from active lesions, RR (risk ratio) laquinimod vs placebo [1, 7]: 0.51
PBH from new T2 lesions, RR (risk ratio) laquinimod vs placebo [1, 7]: 0.52
Number of PBH from GdE lesions, adjusted mean (SE) [1, 8]: 0.6 (0.17) [26]
PBH from GdE lesions, RR (risk ratio) laquinimod vs placebo [1, 8]: 0.65
Number of PBH from GdE lesions, adjusted mean (SE) [1, 9]: 0.6 (0.24) [14]
Number of PBH from active lesions, adjusted mean (SE) [1, 9]: 0.47 (0.14) [29]
Number of PBH from new T2 lesions, mean (SE) [1, 9]: 0.43 (0.14) [28]
PBH from GdE lesions, RR (risk ratio) laquinimod vs placebo [1, 9]: 0.55
PBH from active lesions, RR (risk ratio) laquinimod vs placebo [1, 9]: 0.45
PBH from new T2 lesions, RR (risk ratio) laquinimod vs placebo [1, 9]: 0.50
Number of PBH from GdE lesions, adjusted mean (SE) [1, 10]: 0.7 (0.19) [32]
Number of PBH from active lesions, adjusted mean (SE) [1, 10]: 0.95 (0.18) [52]
Number of PBH from new T2 lesions, mean (SE) [1, 10]: 0.87 (0.17) [51]
PBH from GdE lesions, RR (risk ratio) laquinimod vs placebo [1, 10]: 0.44
PBH from active lesions, RR (risk ratio) laquinimod vs placebo [1, 10]: 0.50
PBH from new T2 lesions, RR (risk ratio) laquinimod vs placebo [1, 10]: 0.52
Number of PBH evolved from GdE lesions present at baseline, placebo vs laquinimod ([1]; at 12 and 24 months): no difference
Average MTR of T2 lesions, LS mean (SE) change ([2]; Baseline to Month 12): 0.39 (0.25)
GM MTR, LS mean (SE) change ([2]; Baseline to Month 12): 0.30 (0.13)
NABT MTR, LS mean (SE) change ([2]; Baseline to Month 12): 0.31 (0.12)
WM MTR, LS mean (SE) change ([2]; Baseline to Month 12): 0.32 (0.13)
Average MTR of T2 lesions, treatment difference (95% CI) ([2]; Baseline to Month 12): 0.38 (−0.26, 1.01) p = 0.239
GM MTR, treatment difference (95% CI) ([2]; Baseline to Month 12): 0.41 (0.08, 0.74) p = 0.014
NABT MTR, treatment difference (95% CI) ([2]; Baseline to Month 12): 0.40 (0.09, 0.71) p = 0.013
WM MTR, treatment difference (95% CI) ([2]; Baseline to Month 12): 0.40 (0.09, 0.72) p = 0.013
Average MTR of T2 lesions, LS mean (SE) change ([2]; Baseline to Month 24): 0.46 (0.29)
GM MTR, LS mean (SE) change ([2]; Baseline to Month 24): 0.14 (0.16)
NABT MTR, LS mean (SE) change ([2]; Baseline to Month 24): 0.23 (0.15)
WM MTR, LS mean (SE) change ([2]; Baseline to Month 24): 0.27 (0.16)
Average MTR of T2 lesions, treatment difference (95% CI) ([2]; Baseline to Month 24): 0.53 (−0.23, 1.28) p = 0.168
GM MTR, treatment difference (95% CI) ([2]; Baseline to Month 24): 0.47 (0.04, 0.90) p = 0.034
NABT MTR, treatment difference (95% CI) ([2]; Baseline to Month 24): 0.50 (0.10, 0.89) p = 0.015
WM MTR, treatment difference (95% CI) ([2]; Baseline to Month 24): 0.53 (0.13, 0.94) p = 0.011
Average MTR of T2 lesions, LS mean (SE) change ([2]; Month 12 to Month 24): 0.07 (0.24)
GM MTR, LS mean (SE) change ([2]; Month 12 to Month 24): −0.16 (0.15)
NABT MTR, LS mean (SE) change ([2]; Month 12 to Month 24): −0.08 (0.14)
WM MTR, LS mean (SE) change ([2]; Month 12 to Month 24): −0.05 (0.13)
Average MTR of T2 lesions, treatment difference (95% CI) ([2]; Month 12 to Month 24): 0.15 (−0.51, 0.81) p = 0.651
GM MTR, treatment difference (95% CI) ([2]; Month 12 to Month 24): 0.06 (−0.37, 0.49) p = 0.787
NABT MTR, treatment difference (95% CI) ([2]; Month 12 to Month 24): 0.10 (−0.31, 0.50) p = 0.642
WM MTR, treatment difference (95% CI) ([2]; Month 12 to Month 24): 0.13 (−0.24, 0.51) p = 0.486
Disability and brain atrophy progression ([3]; 0.6 mg/day, RRMS patients): slowed disability and brain atrophy progression
Rate of whole brain atrophy compared with placebo ([3]; ALLEGRO and BRAVO): decreased the rate of whole brain atrophy
Safety and tolerability profile ([3]; two phase III trials): favorable safety and tolerability profile
